Values of other authors as cited in US9078910B2, “Compositions comprising spicamycin derivatives and methods of use thereof” (DARA BioSciences, Inc., priority 2012, dated 2015).

Test system: neuropathic pain
Conditions: Abdi et al. 2000, Kobierski et al. 2003

## CCCCCCCCC/C=C/C=C/C(=O)NCC(=O)N[C@@H]1[C@@H](O)[C@@H](O)[C@@H](Nc2ncnc3[nH]cnc23)O[C@H]1[C@@H](O)CO [KRN5500, 6-[4-deoxy-4-[(2E,4E)-tetradecadienoylglycyl]amino-L-glycero-β-L-mannoheptopyranosyl]amino-9H-purine]
  Efficacy in rat models of neuropathic pain: effective
